The assay deals with PCSK9 (Homo sapiens, UniProt Q8NBP7). Put plainly: BODIPY-LDL uptake assay in HepG2 cells. The format is cell-based. As to conditions: 5 μg/ml PCSK9, BODIPY-LDL. The procedure:
BODIPY-LDL Uptake Assay in HepG2 Cells.
An established assay for PCSK9 inhibition features uptake of fluorescently labeled LDL nanoparticles (BODIPY-LDL) by hepatocytes and uptake of the BODIPY-containing particles is maximized in the absence of PCSK9.
In the LDL uptake assay, HepG2 cells were seeded at a density of 6×10^4 cells/well in a 96-well plate. After 24 h, the test compounds at various concentrations were pre-incubated with 5 μg/ml PCSK9 in 0.2% DMSO for 60 min prior to the addition on to the cells. After 16 h the medium was removed and 1 μg/ml BODIPY-LDL (Invitrogen) in serum free media was added and incubated for 5 h. Then the cells were washed twice with 0.25% BSA in PBS. Then the fluorescence of the cells in PBS was measured using TECAN multimode reader (Excitation: 485 nm and Emission: 520 nm). The readings were taken in triplicate and the final values were normalized with the protein concentration from respective wells. The wells without test compound containing external PCSK9 is considered as zero uptake and the one without PCSK9 was considered as 100% uptake. The percentage increase in LDL uptake for the test compounds were calculated using these values.

From patent US20230089247A1, “NOVEL COMPOUNDS SUITABLE FOR THE TREATMENT OF DYSLIPIDEMIA” (ZYDUS LIFESCIENCES LIMITED, priority 2019, published 2023) come the findings set out here.

SMILES strings stand for the structures.

Sequence of PCSK9 (Q8NBP7 153-692): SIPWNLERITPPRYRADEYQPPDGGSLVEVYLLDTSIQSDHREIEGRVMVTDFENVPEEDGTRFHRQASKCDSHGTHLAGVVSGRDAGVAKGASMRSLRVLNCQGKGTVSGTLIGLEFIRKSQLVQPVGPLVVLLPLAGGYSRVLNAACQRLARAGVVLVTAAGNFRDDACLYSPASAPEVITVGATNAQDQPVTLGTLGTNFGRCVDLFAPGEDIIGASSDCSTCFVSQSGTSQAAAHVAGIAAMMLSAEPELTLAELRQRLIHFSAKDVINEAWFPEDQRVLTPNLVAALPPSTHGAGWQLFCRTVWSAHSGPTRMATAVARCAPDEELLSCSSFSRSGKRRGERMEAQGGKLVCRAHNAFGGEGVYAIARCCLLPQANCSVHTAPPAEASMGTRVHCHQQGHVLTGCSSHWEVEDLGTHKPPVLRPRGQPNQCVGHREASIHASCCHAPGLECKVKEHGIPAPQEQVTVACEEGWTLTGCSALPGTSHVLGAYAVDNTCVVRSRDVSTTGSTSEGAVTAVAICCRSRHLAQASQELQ

As for `O=C(c1ccc(C2(O)CS(=O)(=O)C2)cc1)N1CC2CN(c3ccc(C(F)(F)F)cc3)CC2C1` (stereo not drawn) [Example 61, (4-(3-hydroxy-1,1-dioxidothietan-3-yl)phenyl)(5-(4-(trifluoromethyl)phenyl)hexahydropyrrolo[3,4-c]pyrrol-2(1H)-yl)methanone], the “% increase in LDL Uptake” value by setting is: (1 μM test compound) 13%; (10 μM test compound) 32%; (30 μM test compound) 37%.

Turning to `CCOC1(c2ccc(C(=O)N3CCN(c4ccc(C(F)(F)F)cn4)CC3)cc2)COC1` [Example 219, (4-(3-ethoxyoxetan-3-yl)phenyl)(4-(5-(trifluoromethyl)pyridin-2-yl)piperazin-1-yl)methanone], the “% increase in LDL Uptake” value was found to be 4% (1 μM test compound), 41% (10 μM test compound) and 15% (30 μM test compound).

On to `CSc1ccc(C2=CC3CN(C(=O)c4ccc(C5(O)COC5)cc4)CC3C2)cc1` (stereo not drawn) [Example 131], for which the “% increase in LDL Uptake” value was −5% (1 μM test compound), 57% (10 μM test compound) and −1% (30 μM test compound).

Regarding `COC1(c2ccc(C(=O)N3CC4CC(OC)(c5ccc(C(F)(F)F)cc5)CC4C3)cc2)COC1` (stereo not drawn) [Example 92, (5-methoxy-5-(4-(trifluoromethyl)phenyl)hexahydrocyclopenta[c]pyrrol-2(1H)-yl)(4-(3-methoxyoxetan-3-yl)phenyl)methanone], the “% increase in LDL Uptake” value is on record as −2% (1 μM test compound), −8% (10 μM test compound) and 64% (30 μM test compound).

For the compound `O=C(c1ccc(C2(O)COC2)cc1)N1CCC(c2ccc(C(F)(F)F)cn2)CC1` [Example 212, (4-(3-hydroxyoxetan-3-yl)phenyl)(4-(5-(trifluoromethyl)pyridin-2-yl)piperidin-1-yl)methanone], the “% increase in LDL Uptake” value is reported as 8% (1 μM test compound), 4% (10 μM test compound) and 48% (30 μM test compound).

For `O=C(c1cncc(C2(O)COC2)c1)N1CCC(c2ccc(C(F)(F)F)cc2)CC1` [Example 49, (5-(3-hydroxyoxetan-3-yl)pyridin-3-yl)(4-(4-(trifluoromethyl)phenyl)piperidin-1-yl)methanone], the “% increase in LDL Uptake” value reads like this: (1 μM test compound) 11%; (10 μM test compound) 45%; (30 μM test compound) 74%.

In the case of `COC1(c2ccc(NC(=O)C3CCN(c4ccc(C(F)(F)F)cc4)CC3)cc2)COC1` [Example 60, N-(4-(3-methoxyoxetan-3-yl)phenyl)-1-(4-(trifluoromethyl)phenyl) piperidine-4-carboxamide], the “% increase in LDL Uptake” value (1 μM test compound) stood at 50%, the “% increase in LDL Uptake” value (10 μM test compound) turned out to be 7% and the “% increase in LDL Uptake” value (30 μM test compound) is listed as 0%.

Turning to `CC(C)OC1(c2ccc(C(=O)N3CCC(c4ccc(C(F)(F)F)cc4)CC3)cc2)COC1` [Example 44, (4-(3-isopropoxyoxetan-3-yl)phenyl)(4-(4-(trifluoromethyl)phenyl)piperidin-1-yl)methanone], the “% increase in LDL Uptake” value stood at 31% (1 μM test compound), 56% (10 μM test compound) and 77% (30 μM test compound).

Turning to `O=C(c1ccc(C2(O)COC2)cc1)N1CCC(c2ccc(O)cc2)CC1` [Example 63, (4-(3-hydroxyoxetan-3-yl)phenyl)(4-(4-hydroxyphenyl)piperidin-1-yl)methanone], the “% increase in LDL Uptake” value by setting is: (1 μM test compound) 12%; (10 μM test compound) 18%; (30 μM test compound) 0%.

For `Cc1ccc(C2=CC3CN(C(=O)c4ccc(C5(O)COC5)cc4)CC3C2)cc1` (stereo not drawn) [Example 130, (4-(3-hydroxyoxetan-3-yl)phenyl)(5-(p-tolyl)-3,3a,6,6a-tetrahydrocyclopenta[c]pyrrol-2(1H)-yl)methanone], the “% increase in LDL Uptake” value reads like this: (1 μM test compound) −19%; (10 μM test compound) 20%; (30 μM test compound) 74%.

With `O=C(c1cccc(C2(OCC3CC3)COC2)c1)N1CC2CN(c3ccc(C(F)(F)F)cc3)CC2C1` (stereo not drawn) [Example 181, (3-(3-(cyclopropylmethoxy)oxetan-3-yl)phenyl)(5-(4-(trifluoromethyl)phenyl)hexahydropyrrolo[3,4-c]pyrrol-2(1H)-yl)methanone], the “% increase in LDL Uptake” value (1 μM test compound) is listed as 3%, the “% increase in LDL Uptake” value (10 μM test compound) is given as 19% and the “% increase in LDL Uptake” value (30 μM test compound) was found to be 26%.

In the case of `COC1(c2ccc(C(=O)N3CCC(c4cccc(C(F)(F)F)c4)CC3)cc2)COC1` [Example 37, (4-(3-methoxyoxetan-3-yl)phenyl)(4-(3-(trifluoromethyl)phenyl)piperidin-1-yl)methanone], the “% increase in LDL Uptake” value is 31% (1 μM test compound), 65% (10 μM test compound) and 36% (30 μM test compound).

Consider `O=C(Nc1ccc(C2(O)COC2)cc1)N1CCC(c2ccc(C(F)(F)F)cc2)CC1` [Example 4, N-(4-(3-hydroxyoxetan-3-yl)phenyl)-4-(4-(trifluoromethyl)phenyl) piperidine-1-carboxamide], for which the “% increase in LDL Uptake” value is recorded as 38% (1 μM test compound), 58% (10 μM test compound) and 77% (30 μM test compound).

For the compound `CCOC1(c2ccc(C(=O)N3CCC(c4ccc(C(F)(F)F)cc4)CC3)cc2)CCN(C(=O)OC(C)(C)C)CC1` [Example 161, tert-butyl 4-ethoxy-4-(4-(4-(4-(trifluoromethyl)phenyl)piperidine-1-carbonyl)phenyl) piperidine-1-carboxylate], the “% increase in LDL Uptake” value runs as follows: (1 μM test compound) 0%; (10 μM test compound) 0%; (30 μM test compound) 16%.

For `CC(C)OC1(c2ccc(C(=O)N3CC4CN(c5ccc(C(F)(F)F)cc5)CC4C3)cc2)COC1` (stereo not drawn) [Example 136, (4-(3-isopropoxyoxetan-3-yl)phenyl)(5-(4-(trifluoromethyl)phenyl)hexahydropyrrolo[3,4-c]pyrrol-2(1H)-yl)methanone], the “% increase in LDL Uptake” value is listed as 11% (1 μM test compound), 12% (10 μM test compound) and 14% (30 μM test compound).

For the compound `COCCOC1(c2ccc(C(=O)N3CC4CN(c5ccc(C(F)(F)F)cc5)CC4C3)cc2)COC1` (stereo not drawn) [Example 137, (4-(3-(2-methoxyethoxy)oxetan-3-yl)phenyl)(5-(4-(trifluoromethyl)phenyl)hexahydropyrrolo[3,4-c]pyrrol-2(1H)-yl)methanone], the “% increase in LDL Uptake” value is 0% (1 μM test compound), 66% (10 μM test compound) and 116% (30 μM test compound).

Regarding `CCOC1(c2ccc(C(=O)N3CCCC(c4ccc(C(F)(F)F)cc4)C3)cc2)COC1` (stereo not drawn) [Example 123, (4-(3-ethoxyoxetan-3-yl)phenyl)(3-(4-(trifluoromethyl)phenyl)piperidin-1-yl)methanone], the “% increase in LDL Uptake” value (1 μM test compound) was found to be 0%, the “% increase in LDL Uptake” value (10 μM test compound) came to 14% and the “% increase in LDL Uptake” value (30 μM test compound) was found to be 30%.

As for `O=C(c1cccc(C2(O)COC2)c1)N1CCCC(c2ccc(C(F)(F)F)cc2)C1` (stereo not drawn) [Example 48, (3-(3-hydroxyoxetan-3-yl)phenyl)(3-(4-(trifluoromethyl)phenyl)piperidin-1-yl)methanone], the “% increase in LDL Uptake” value reads like this: (1 μM test compound) 0%; (10 μM test compound) 142%; (30 μM test compound) 234%.
